Type in all cases: in vivo
Assay [1] has as its system Japanese bulrush (Scirpus juncoides Roxb.). Nature of the assay: Test Example 1: herbicidal effect by soil application to paddy field. The note with it: paddy field soil application; active ingredient 1,000 g per 1 hectare; wettable powder added dropwise to water surface the day after sowing; examined on the 21st day after application. The gist of the method:
(§1)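 Plants were sown in flooded (3 cm) paddy soil and evaluated for herbicidal effect 21 days after soil application in a greenhouse.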

For assay [2], the system named is early watergrass (Echinochloa oryzicola Vasing). Described as above. The note with it: paddy field soil application; active ingredient 1,000 g per 1 hectare; wettable powder added dropwise to water surface the day after sowing; examined on the 21st day after application. The gist of the method: as §1
Assay [3] relates to heartshape false pickerelweed (Monochoria vaginalis (Burm.f.) C.Presl). The description is as above. The note with it: paddy field soil application; active ingredient 1,000 g per 1 hectare; wettable powder added dropwise to water surface the day after sowing; examined on the 21st day after application. The gist of the method: as §1
Assay [4] has as its system green foxtail (Setaria viridis (L.) P. Beauv.). Briefly: Test Example 3: herbicidal effect by application to upland field (foliage treatment). To be noted: 14th day after application; for herbicidal effect, Green Foxtail: foliage treatment, 1,000 g active ingredient per 1 hectare, greenhouse; for herbicidal effect (index), Green Foxtail: foliage treatment, plants grown two weeks, 1,000 g active ingredient per hectare. The gist of the method:
(§2)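 Sow in field soil; grow 2 weeks in greenhouse; spray foliage from above with wettable-powder dilution (1,000 g AI/ha, 1,000 L/ha); return to greenhouse; score effect at day 14 against a standard.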

The subject of assay [5] is barnyardgrass (Echinochloa crus-galli (L.) P. Beauv. var. crus-galli). Described as above. To be noted: 14th day after application; for herbicidal effect, Barnyardgrass: foliage treatment, 1,000 g active ingredient per 1 hectare, greenhouse; for herbicidal effect (index), Barnyardgrass: foliage treatment, plants grown two weeks, 1,000 g active ingredient per hectare. The method in brief: as §2

The test system of assay [6] is slender amaranth (Amaranthus viridis L.). The description is as above. To be noted: 14th day after application; for herbicidal effect, Slender Amaranth: foliage treatment, 1,000 g active ingredient per 1 hectare, greenhouse; for herbicidal effect (index), Slender Amaranth: foliage treatment, plants grown two weeks, 1,000 g active ingredient per hectare. The method in brief: as §2

The subject of assay [7] is velvetleaf (Abutilon theophrasti medicus). The description is as above. The note with it: 14th day after application; for herbicidal effect, Velvetleaf: foliage treatment, 1,000 g active ingredient per 1 hectare, greenhouse; for herbicidal effect (index), Velvetleaf: foliage treatment, plants grown two weeks, 1,000 g active ingredient per hectare. The gist of the method:
as §2

In assay [8] the test system is green foxtail (Setaria viridis (L.) P. Beauv.). Nature of the assay: Test Example 2: herbicidal effect by soil application to upland field. The note with it: soil surface spray, upland field soil, 1,000 g active ingredient per hectare, 21st day after application. The gist of the method: (§3)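 Seeds were sown in field soil, covered, and the soil surface sprayed with a water-diluted wettable powder at 1,000 g active ingredient per hectare in 1,000 L/ha. Plants grew in a greenhouse, and herbicidal effect was rated against a standard scale 21 days after application.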

The subject of assay [9] is barnyardgrass (Echinochloa crus-galli (L.) P. Beauv. var. crus-galli). The assay is described as above. To be noted: soil surface spray, upland field soil, 1,000 g active ingredient per hectare, 21st day after application. The method in brief: as §3
Assay [10] deals with slender amaranth (Amaranthus viridis L.). Described as above. To be noted: soil surface spray, upland field soil, 1,000 g active ingredient per hectare, 21st day after application. The method in brief: as §3
The test system of assay [11] is velvetleaf (Abutilon theophrasti medicus). Described as above. To be noted: soil surface spray, upland field soil, 1,000 g active ingredient per hectare, 21st day after application. The gist of the method: as §3

Take `CCCS(=O)(=O)Oc1c(C(=O)c2ccc(C(F)(F)F)n(CC(F)(F)F)c2=O)cnn1C` [IV-10]: in assay [1], the “herbicidal effect, Scirpus juncoides Roxb.” value was 5 (90% or more of herbicidal effect and crop phytotoxicity). The “herbicidal effect, Echinochloa oryzicola Vasing” value in [2] is 5 (90% or more of herbicidal effect and crop phytotoxicity). For the same compound, the “herbicidal effect, Monochoria vaginalis (Burm. f.) C. Presl” value (“herbicidal effect, Monochoria vaginalis” below) in assay [3] was 5 (90% or more of herbicidal effect and crop phytotoxicity). The “herbicidal effect, Green Foxtail” value in assay [4] is 4 (70 to less than 90% of herbicidal effect and crop phytotoxicity). The “herbicidal effect, Barnyardgrass” value in assay [5] is 5 (90% or more of herbicidal effect and crop phytotoxicity). For the same compound, in assay [6], the “herbicidal effect, Slender Amaranth” value is 5 (90% or more of herbicidal effect and crop phytotoxicity). In [7], the “herbicidal effect, Velvetleaf” value was 4 (70 to less than 90% of herbicidal effect and crop phytotoxicity). Further, the “herbicidal effect (index), Green Foxtail” value in assay [8] is 5 (90% or more of herbicidal effect and crop phytotoxicity). Moreover, in [9], the “herbicidal effect (index), Barnyardgrass” value was 5 (90% or more of herbicidal effect and crop phytotoxicity). The “herbicidal effect (index), Slender Amaranth” value in [10] was 5 (90% or more of herbicidal effect and crop phytotoxicity). Besides, in [11], the “herbicidal effect (index), Velvetleaf” value is 5 (90% or more of herbicidal effect and crop phytotoxicity).
In the case of `CCn1ncc(C(=O)c2ccc(C(F)(F)F)n(CC3CC(C)=NO3)c2=O)c1O` (centres unmarked) [IV-107], the “herbicidal effect, Scirpus juncoides Roxb.” value in assay [1] is 5 (90% or more of herbicidal effect and crop phytotoxicity). Also, in assay [2], the “herbicidal effect, Echinochloa oryzicola Vasing” value is 5 (90% or more of herbicidal effect and crop phytotoxicity). Further, in assay [3], the “herbicidal effect, Monochoria vaginalis” value was 5 (90% or more of herbicidal effect and crop phytotoxicity). In addition, the “herbicidal effect, Green Foxtail” value in assay [4] is 5 (90% or more of herbicidal effect and crop phytotoxicity). The “herbicidal effect, Barnyardgrass” value in assay [5] is 5 (90% or more of herbicidal effect and crop phytotoxicity). Moreover, the “herbicidal effect, Slender Amaranth” value in [6] was 5 (90% or more of herbicidal effect and crop phytotoxicity). Further, the “herbicidal effect, Velvetleaf” value in assay [7] was 5 (90% or more of herbicidal effect and crop phytotoxicity). Moreover, the “herbicidal effect (index), Green Foxtail” value in assay [8] is 5 (90% or more of herbicidal effect and crop phytotoxicity). In assay [9], the “herbicidal effect (index), Barnyardgrass” value was 5 (90% or more of herbicidal effect and crop phytotoxicity). Besides, in assay [10], the “herbicidal effect (index), Slender Amaranth” value was 5 (90% or more of herbicidal effect and crop phytotoxicity). Besides, the “herbicidal effect (index), Velvetleaf” value in assay [11] is 5 (90% or more of herbicidal effect and crop phytotoxicity).
As for `O=C1CCCC(O)=C1C(=O)c1ccc(C(F)(F)F)n(CCc2ccccc2)c1=O` [I-129], in assay [1], the “herbicidal effect, Scirpus juncoides Roxb.” value is 5 (90% or more of herbicidal effect and crop phytotoxicity). Besides, the “herbicidal effect, Echinochloa oryzicola Vasing” value in [2] was 5 (90% or more of herbicidal effect and crop phytotoxicity). Besides, in assay [3], the “herbicidal effect, Monochoria vaginalis” value is 4 (70 to less than 90% of herbicidal effect and crop phytotoxicity). Moreover, the “herbicidal effect, Green Foxtail” value in assay [4] was 5 (90% or more of herbicidal effect and crop phytotoxicity). In addition, in assay [5], the “herbicidal effect, Barnyardgrass” value was 5 (90% or more of herbicidal effect and crop phytotoxicity). For the same compound, in [6], the “herbicidal effect, Slender Amaranth” value is 5 (90% or more of herbicidal effect and crop phytotoxicity). For the same compound, in assay [7], the “herbicidal effect, Velvetleaf” value was 5 (90% or more of herbicidal effect and crop phytotoxicity). For the same compound, in assay [8], the “herbicidal effect (index), Green Foxtail” value is 4 (70 to less than 90% of herbicidal effect and crop phytotoxicity). Besides, the “herbicidal effect (index), Barnyardgrass” value in assay [9] is 5 (90% or more of herbicidal effect and crop phytotoxicity). The “herbicidal effect (index), Slender Amaranth” value in [10] was 5 (90% or more of herbicidal effect and crop phytotoxicity). Also, the “herbicidal effect (index), Velvetleaf” value in [11] is 5 (90% or more of herbicidal effect and crop phytotoxicity).
As for `O=C1CCCC(O)=C1C(=O)c1ccc(C(F)(F)F)n(-c2ccc(F)c(F)c2)c1=O` [I-105], the “herbicidal effect, Scirpus juncoides Roxb.” value in assay [1] is 5 (90% or more of herbicidal effect and crop phytotoxicity). In addition, the “herbicidal effect, Echinochloa oryzicola Vasing” value in [2] was 5 (90% or more of herbicidal effect and crop phytotoxicity). For the same compound, the “herbicidal effect, Monochoria vaginalis” value in assay [3] was 5 (90% or more of herbicidal effect and crop phytotoxicity). In addition, the “herbicidal effect (index), Green Foxtail” value in assay [4] is 5 (90% or more of herbicidal effect and crop phytotoxicity); in [8] it was 5 (90% or more of herbicidal effect and crop phytotoxicity). For the same compound, the “herbicidal effect (index), Barnyardgrass” value in assay [5] was 5 (90% or more of herbicidal effect and crop phytotoxicity); in [9], 5 (90% or more of herbicidal effect and crop phytotoxicity). Besides, the “herbicidal effect (index), Slender Amaranth” value in assay [6] is 5 (90% or more of herbicidal effect and crop phytotoxicity); in assay [10] it was 5 (90% or more of herbicidal effect and crop phytotoxicity). Besides, the “herbicidal effect (index), Velvetleaf” value in assay [7] was 5 (90% or more of herbicidal effect and crop phytotoxicity); in [11], 5 (90% or more of herbicidal effect and crop phytotoxicity).
Take `COC(Cn1c(C(F)(F)F)ccc(C(=O)C2=C(O)C3CCC(C3)C2=O)c1=O)OC` (centres unmarked) [III-25]: in assay [1], the “herbicidal effect, Scirpus juncoides Roxb.” value is 5 (90% or more of herbicidal effect and crop phytotoxicity). In addition, in [2], the “herbicidal effect, Echinochloa oryzicola Vasing” value is 5 (90% or more of herbicidal effect and crop phytotoxicity). The “herbicidal effect, Monochoria vaginalis” value in assay [3] was 5 (90% or more of herbicidal effect and crop phytotoxicity). In addition, the “herbicidal effect, Green Foxtail” value in [4] was 5 (90% or more of herbicidal effect and crop phytotoxicity). For the same compound, the “herbicidal effect, Barnyardgrass” value in assay [5] is 5 (90% or more of herbicidal effect and crop phytotoxicity). The “herbicidal effect, Slender Amaranth” value in [6] was 5 (90% or more of herbicidal effect and crop phytotoxicity). For the same compound, the “herbicidal effect, Velvetleaf” value in assay [7] is 5 (90% or more of herbicidal effect and crop phytotoxicity). Also, in assay [8], the “herbicidal effect (index), Green Foxtail” value is 5 (90% or more of herbicidal effect and crop phytotoxicity). Moreover, the “herbicidal effect (index), Barnyardgrass” value in assay [9] is 5 (90% or more of herbicidal effect and crop phytotoxicity). In assay [10], the “herbicidal effect (index), Slender Amaranth” value was 5 (90% or more of herbicidal effect and crop phytotoxicity). For the same compound, the “herbicidal effect (index), Velvetleaf” value in [11] is 5 (90% or more of herbicidal effect and crop phytotoxicity).
Turning to `O=C1CCCC(O)=C1C(=O)c1ccc(C(F)(F)F)n(-c2cccc(Cl)c2)c1=O` [I-74], the “herbicidal effect, Scirpus juncoides Roxb.” value in [1] was 5 (90% or more of herbicidal effect and crop phytotoxicity). For the same compound, the “herbicidal effect, Echinochloa oryzicola Vasing” value in assay [2] was 5 (90% or more of herbicidal effect and crop phytotoxicity). Moreover, in assay [3], the “herbicidal effect, Monochoria vaginalis” value is 5 (90% or more of herbicidal effect and crop phytotoxicity). Also, the “herbicidal effect (index), Green Foxtail” value in assay [4] was 5 (90% or more of herbicidal effect and crop phytotoxicity); in assay [8], 5 (90% or more of herbicidal effect and crop phytotoxicity). For the same compound, the “herbicidal effect (index), Barnyardgrass” value in assay [5] was 5 (90% or more of herbicidal effect and crop phytotoxicity); in assay [9] it was 5 (90% or more of herbicidal effect and crop phytotoxicity). The “herbicidal effect (index), Slender Amaranth” value in assay [6] is 5 (90% or more of herbicidal effect and crop phytotoxicity); in assay [10], 5 (90% or more of herbicidal effect and crop phytotoxicity). Also, the “herbicidal effect (index), Velvetleaf” value was 5 (90% or more of herbicidal effect and crop phytotoxicity) in [7]; 5 (90% or more of herbicidal effect and crop phytotoxicity) in assay [11].
Turning to `CC(C)S(=O)(=O)Cn1c(C(F)(F)F)ccc(C(=O)C2=C(O)CCCC2=O)c1=O` [I-54], the “herbicidal effect, Scirpus juncoides Roxb.” value in assay [1] was 5 (90% or more of herbicidal effect and crop phytotoxicity). In addition, the “herbicidal effect, Echinochloa oryzicola Vasing” value in assay [2] is 5 (90% or more of herbicidal effect and crop phytotoxicity). Besides, in assay [3], the “herbicidal effect, Monochoria vaginalis” value was 5 (90% or more of herbicidal effect and crop phytotoxicity). For the same compound, the “herbicidal effect (index), Green Foxtail” value in [4] is 5 (90% or more of herbicidal effect and crop phytotoxicity); in [8], 4 (70 to less than 90% of herbicidal effect and crop phytotoxicity). Besides, the “herbicidal effect (index), Barnyardgrass” value in [5] is 5 (90% or more of herbicidal effect and crop phytotoxicity); in assay [9] it was 5 (90% or more of herbicidal effect and crop phytotoxicity). The “herbicidal effect (index), Slender Amaranth” value in [6] was 5 (90% or more of herbicidal effect and crop phytotoxicity); in assay [10], 5 (90% or more of herbicidal effect and crop phytotoxicity). The “herbicidal effect (index), Velvetleaf” value in assay [7] was 5 (90% or more of herbicidal effect and crop phytotoxicity); in assay [11] it was 5 (90% or more of herbicidal effect and crop phytotoxicity).

Source of the values: US8076487B2, “Pyridone derivative and herbicide” (Kumiai Chemical Industry Co., Ltd., priority 2006, dated 2011).
